Source: patent publication US10669272B2, “Substituted naphthyridinone compounds useful as T cell activators” (BRISTOL-MYERS SQUIBB COMPANY, priority 2018, dated 2020)
Like-named read-outs stand apart in the source and are kept apart here.

What was measured:
[1] = molecular target: T1, human DGKα (Homo sapiens, UniProt P23743); assay: DGKα LIPGLO assay (extruded liposome substrate), in vitro DGK inhibition; assay type: biochemical; conditions: read-out: DGKa LIPGLO IC50
T1 construct: TVMV protease cleavage site (C); Hexa-His (C); made in house; host or cells: Sf9 insect cells (baculovirus, Bac-to-Bac)
T1 sequence (P23743 with tags, fused parts or gaps): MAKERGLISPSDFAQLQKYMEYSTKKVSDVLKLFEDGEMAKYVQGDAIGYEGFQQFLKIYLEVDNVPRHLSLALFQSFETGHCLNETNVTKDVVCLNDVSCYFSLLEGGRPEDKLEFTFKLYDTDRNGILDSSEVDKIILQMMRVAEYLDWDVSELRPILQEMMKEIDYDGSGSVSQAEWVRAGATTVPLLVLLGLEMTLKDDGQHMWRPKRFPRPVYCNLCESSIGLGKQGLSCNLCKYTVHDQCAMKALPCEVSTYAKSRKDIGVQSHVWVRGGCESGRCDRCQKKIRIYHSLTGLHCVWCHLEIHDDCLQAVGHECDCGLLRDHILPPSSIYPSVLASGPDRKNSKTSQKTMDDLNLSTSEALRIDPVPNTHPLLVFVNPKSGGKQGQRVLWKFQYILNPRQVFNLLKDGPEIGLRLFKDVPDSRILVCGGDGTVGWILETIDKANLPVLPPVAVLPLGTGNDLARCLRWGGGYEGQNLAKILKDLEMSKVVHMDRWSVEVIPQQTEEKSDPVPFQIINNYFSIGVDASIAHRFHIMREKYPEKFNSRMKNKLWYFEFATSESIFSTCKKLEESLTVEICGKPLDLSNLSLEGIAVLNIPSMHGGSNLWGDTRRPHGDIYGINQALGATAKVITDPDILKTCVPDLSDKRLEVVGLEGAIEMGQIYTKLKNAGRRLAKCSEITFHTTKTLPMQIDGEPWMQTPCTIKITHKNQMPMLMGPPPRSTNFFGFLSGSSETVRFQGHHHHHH

[2] = molecular target: T2, human DGKζ (Homo sapiens, UniProt Q13574); assay: DGKζ LIPGLO assay (extruded liposome substrate), in vitro DGK inhibition; assay type: biochemical; conditions: read-out: DGKz LIPGLO IC50
T2 construct: TVMV protease cleavage site (C); Hexa-His (C); made in house; host or cells: Sf9 insect cells (baculovirus, Bac-to-Bac)
T2 sequence (Q13574 with tags, fused parts or gaps isoform Q13574-4): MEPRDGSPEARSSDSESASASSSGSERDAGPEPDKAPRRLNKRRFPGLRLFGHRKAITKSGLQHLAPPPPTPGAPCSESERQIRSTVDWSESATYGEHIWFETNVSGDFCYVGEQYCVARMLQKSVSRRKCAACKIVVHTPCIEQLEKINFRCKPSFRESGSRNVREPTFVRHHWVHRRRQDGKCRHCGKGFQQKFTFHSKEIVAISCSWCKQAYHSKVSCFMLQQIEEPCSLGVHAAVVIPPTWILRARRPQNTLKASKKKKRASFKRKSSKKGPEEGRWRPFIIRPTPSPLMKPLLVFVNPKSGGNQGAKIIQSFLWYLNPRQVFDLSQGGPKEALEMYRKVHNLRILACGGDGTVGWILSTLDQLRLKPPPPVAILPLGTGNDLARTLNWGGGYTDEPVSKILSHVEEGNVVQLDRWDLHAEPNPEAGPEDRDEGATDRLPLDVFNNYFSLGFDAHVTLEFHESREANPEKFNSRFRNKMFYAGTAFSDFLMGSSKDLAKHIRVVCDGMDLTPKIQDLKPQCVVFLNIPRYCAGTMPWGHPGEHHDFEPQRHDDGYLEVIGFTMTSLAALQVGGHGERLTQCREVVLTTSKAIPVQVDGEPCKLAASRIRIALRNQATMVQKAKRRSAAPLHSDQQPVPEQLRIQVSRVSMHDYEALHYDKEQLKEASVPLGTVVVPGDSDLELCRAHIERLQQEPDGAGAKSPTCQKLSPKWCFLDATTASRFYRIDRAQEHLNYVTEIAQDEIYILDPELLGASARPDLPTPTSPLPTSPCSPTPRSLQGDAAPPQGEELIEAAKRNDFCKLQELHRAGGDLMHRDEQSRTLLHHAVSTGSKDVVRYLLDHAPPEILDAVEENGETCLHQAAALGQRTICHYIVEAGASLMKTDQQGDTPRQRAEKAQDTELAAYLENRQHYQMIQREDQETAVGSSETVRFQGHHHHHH

[3] = system: naïve human CD8 T cells; assay: Human CD8 T cells IFN-γ assay; assay type: cell-based; conditions: normalized to 3 μM reference compound with anti-CD3 plus anti-CD28 as 100% activation, read-out: HuCD8 INFG Normalized EC50;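 note: Naïve human CD8 T cells stimulated with plate-bound anti-CD3 and soluble anti-CD28, IFN-γ in supernatant quantified by AlphaLISA and converted to pg/mL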
[4] = system: Human venous whole blood; assay: Human whole blood IFN-γ assay; assay type: cell-based; conditions: human whole blood, read-out: INFg Whole Blood Normalized Agonist EC50;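 note: blood from healthy donors exposed to compound for 1 h before stimulation with anti-CD3 and anti-CD28 at 1 µg/mL each, IFN-γ quantified in supernatant by AlphaLISA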
[5] = anti-CD3 plus anti-CD28, 24 hours, 3 μM reference compound = 100% activation
[6] = normalized to 3 μM reference compound with anti-CD3 plus anti-CD28 as 100% activation
[7] = Homo sapiens, 24 h, anti-CD3 plus anti-CD28, 24 hours, 3 μM reference compound = 100% activation
[8] = Homo sapiens, 24 h, normalized to 3 μM reference compound with anti-CD3 plus anti-CD28 as 100% activation

Row | IC50 ([1]; liposome (LIPGLO) assay) [nM] | IC50 ([2]; liposome (LIPGLO) assay) [nM] | Compound | further results
1 | 17000 | 79000 | COc1ccc2c(n1)c(N1C[C@@H](C)N(C(c3ccccc3)c3ccc(F)cc3)C[C@@H]1C)cc(=O)n2C (single isomer, unassigned) [Example 238] | EC50 ([3]; Homo sapiens, T-cell, 20 h): 5000 nM
2 | 1700 | 4000 | C[C@@H]1CN(c2cc(=O)n(C)c3ccc(C#N)nc23)[C@@H](C)CN1C(c1ccc(F)cc1)c1cc(F)ccn1 (single isomer, unassigned) [Example 473] | EC50 [4, 6]: 880 nM
3 | 670 | 14000 | C[C@@H]1CN(c2cc(=O)n(C)c3ccc(C#N)nc23)[C@@H](C)CN1C(c1ccc(F)cc1)c1cocn1 (single isomer, unassigned) [Example 709] | EC50 [4, 6]: 2100 nM
4 | 200 | 3200 | CC(c1ccc(-n2cncn2)cc1)N1C[C@H](C)N(c2cc(=O)n(C)c3ccc(C#N)nc23)C[C@H]1C (single isomer, unassigned) [Example 1238] | EC50 [4, 6]: 9700 nM
5 | 49 | 48 | COCc1ccc(C(C)N2C[C@H](C)N(c3cc(=O)n(C)c4ccc(C#N)nc34)C[C@H]2C)cc1 (stereo partly drawn) [Example 1265] | EC50 [4, 6]: 120 nM
6 | 620 | 790 | CC[C@H]1CN(C(c2ccc(F)cc2)c2ccc(C(F)(F)F)cn2)[C@H](C)CN1c1cc(=O)n(C)c2ccc(C#N)nc12 (single isomer, unassigned) [Example 1132] | EC50 [4, 6]: 1600 nM
7 | 1100 | 940 | C[C@@H]1CN(c2cc(=O)n(C)c3ccc(C#N)nc23)[C@@H](C)CN1C(c1ccc(F)cc1)c1ccns1 (stereo partly drawn) [Example 720] | EC50 [4, 6]: 1900 nM
8 | > 250000 | > 250000 | C[C@@H]1CN(c2cc(=O)n(C)c3ccc(C#N)nc23)[C@@H](C)CN1C(c1ccc(F)cc1)c1ccc(N2CCOCC2)cc1 (single isomer, unassigned) [Example 662] | EC50 [4, 8]: 20000 nM

More lines, now with the values behind:

Row | Compound | IC50 ([1]; liposome (LIPGLO) assay) [nM] | IC50 ([2]; liposome (LIPGLO) assay) [nM] | further results
9 | Cn1c(=O)cc(N2CCN(C(c3ccc(F)cc3)c3ccc(F)cc3)C(C(=O)O)C2)c2nc(C#N)ccc21 (stereo not drawn) [Example 55, 1-(bis(4-fluorophenyl)methyl)-4-(6-cyano-1-methyl-2-oxo-1,2-dihydro-1,5-naphthyridin-4-yl)piperazine-2-carboxylic acid] | 240000 | 180000 | EC50 ([3]; Homo sapiens, T-cell, 20 h): 6400 nM
10 | COC(=O)C1CN(c2c(F)c(=O)n(C)c3ccc(C#N)nc23)CCN1C(c1ccc(Cl)cc1)c1ccc(Cl)cc1 (single isomer, unassigned) [Example 95, methyl 1-(bis(4-chlorophenyl)methyl)-4-(6-cyano-3-fluoro-1-methyl-2-oxo-1,2-dihydro-1,5-naphthyridin-4-yl)piperazine-2-carboxylate] | 2600 | 760 | EC50 [3]: 21 nM
11 | COC(=O)C1CN(c2cc(=O)n(C)c3ccc(C#N)nc23)CCN1C(c1ccc(F)cc1)c1ccc(F)cc1OC (single isomer, unassigned) [Example 67, Methyl 4-(6-cyano-1-methyl-2-oxo-1,2-dihydro-1,5-naphthyridin-4-yl)-1-((4-fluoro-2-methoxyphenyl)(4-fluorophenyl)methyl)piperazine-2-carboxylate] | 48000 | 920 | EC50 [3]: 30 nM
12 | Cn1c(=O)c(C#N)c(N2CCN(C(c3ccc(F)cc3)c3ccc(F)cc3)CC2CO)c2nc(Br)ccc21 (stereo not drawn) [Example 118, 4-(4-(bis(4-fluorophenyl)methyl)-2-(hydroxymethyl)piperazin-1-yl)-6-bromo-1-methyl-2-oxo-1,2-dihydro-1,5-naphthyridine-3-carbonitrile] | 10000 | 63000 | EC50 ([3]; Homo sapiens, T-cell, 20 h): 710 nM
13 | Cn1c(=O)c(C#N)c(N2CCN(C(c3ccc(F)cc3)c3ccc(F)cc3)C(C(=O)NC3CC3)C2)c2nc(C#N)ccc21 (single isomer, unassigned) [Example 61, 1-(bis(4-fluorophenyl)methyl)-N-cyclopropyl-4-(3,6-dicyano-1-methyl-2-oxo-1,2-dihydro-1,5-naphthyridin-4-yl)piperazine-2-carboxamide] | 240000 | 170000 | EC50 [3]: 10000 nM
14 | COc1cc(F)ccc1C(c1ccc(F)cc1)N1C[C@H](C)N(c2c(C#N)c(=O)n(C)c3ccc(C#N)nc23)C[C@H]1C (single isomer, unassigned) [Example 111] | 62000 | 1600 | EC50 ([3]; Homo sapiens, T-cell, 20 h): 73 nM
15 | CC(C)OC(=O)C1CN(c2cc(=O)n(C)c3ccc(C#N)nc23)CCN1C(c1ccc(F)cc1)c1ccc(F)cc1 (single isomer, unassigned) [Example 62, Isopropyl 1-(bis(4-fluorophenyl)methyl)-4-(6-cyano-1-methyl-2-oxo-1,2-dihydro-1,5-naphthyridin-4-yl)piperazine-2-carboxylate] | 240000 | 15000 | EC50 [3]: 1800 nM
16 | CC(c1c(F)cccc1F)N1CCN(c2c(C#N)c(=O)n(C)c3ccc(C#N)nc23)C[C@H]1C (single isomer, unassigned) [Example 951] |  |  | IC50 ([1]; DGKα liposome (LIPGLO) assay): 3700 nM; IC50 ([2]; DGKζ liposome (LIPGLO) assay): 9800 nM; EC50 [4, 5]: 20000 nM
17 | CC(c1c(F)cccc1F)N1C[C@H](C)N(c2c(C#N)c(=O)n(C)c3ccc(C#N)nc23)C[C@H]1C (single isomer, unassigned) [Example 781] |  |  | IC50 ([1]; DGKα liposome (LIPGLO) assay): 74 nM; IC50 ([2]; DGKζ liposome (LIPGLO) assay): 120 nM; EC50 [4, 7]: 830 nM
18 | COCc1cc(C(C)N2C[C@H](C)N(c3cc(=O)n(C)c4ccc(C#N)nc34)C[C@H]2C)ccc1F (single isomer, unassigned) [Example 1317] | 8000 | 970 | EC50 [4, 6]: 2900 nM
19 | Cc1ccc(C)c(C(C)N2CCN(c3c(C#N)c(=O)n(C)c4ccc(C#N)nc34)C[C@H]2C)c1 (single isomer, unassigned) [Example 976] |  |  | IC50 ([1]; DGKα liposome (LIPGLO) assay): 17000 nM; IC50 ([2]; DGKζ liposome (LIPGLO) assay): 6400 nM; EC50 [4, 5]: 20000 nM
20 | C[C@@H]1CN(c2cc(=O)n(C)c3ccc(C#N)nc23)[C@@H](C)CN1C(c1ccc(F)cc1)c1nc(C2CCOCC2)no1 (single isomer, unassigned) [Example 740] |  |  | IC50 ([1]; DGKα liposome (LIPGLO) assay): 610 nM; IC50 ([2]; DGKζ liposome (LIPGLO) assay): 1300 nM; EC50 [4, 5]: 120 nM
21 | Cc1cc(CN2CCN(c3c(C#N)c(=O)n(C)c4ccc(C#N)nc34)C[C@H]2C)ccc1F [Example 995] |  |  | IC50 ([1]; DGKα liposome (LIPGLO) assay): 3200 nM; IC50 ([2]; DGKζ liposome (LIPGLO) assay): 5600 nM; EC50 [4, 7]: 2500 nM
22 | Cn1c(=O)c(C#N)c(N2CCN(C(c3ccc(F)cc3)c3ccc(F)cc3)C(CF)C2)c2nc(Br)ccc21 (stereo not drawn) [Example 9, 4-(4-(bis(4-fluorophenyl)methyl)-3-(fluoromethyl)piperazin-1-yl)-6-bromo-1-methyl-2-oxo-1,2-dihydro-1,5-naphthyridine-3-carbonitrile] | 2100 | 9500 | EC50 [4, 8]: 1600 nM
23 | CC(C)c1ccc(CN2C[C@H](C)N(c3cc(=O)n(C)c4ccc(C#N)nc34)C[C@H]2C)cc1 [Example 602] | 850 | 3700 | EC50 [4, 8]: 1100 nM
24 | CC(c1ccccc1C(F)(F)F)N1CCN(c2c(C#N)c(=O)n(C)c3ccc(C#N)nc23)C[C@H]1C (single isomer, unassigned) [Example 966] |  |  | IC50 ([1]; DGKα liposome (LIPGLO) assay): 61000 nM; IC50 ([2]; DGKζ liposome (LIPGLO) assay): > 250000 nM; EC50 [4, 7]: 20000 nM
25 | C[C@@H]1CN(c2cc(=O)n(C)c3ccc(C#N)nc23)[C@@H](C)CN1Cc1cccc(OC(F)(F)F)c1 [Example 586] | 7300 | 5600 | EC50 [4, 8]: 2300 nM
26 | COCc1cc(F)ccc1C(C)N1C[C@H](C)N(c2cc(=O)n(C)c3ccc(C#N)nc23)C[C@H]1C (single isomer, unassigned) [Example 1314] | 10000 | 49 | EC50 [4, 8]: 460 nM
